# Laboratory results from ChEMBL document CHEMBL2321768, “A multivalent approach towards linked dual-pharmacology prostaglandin F receptor agonist/carbonic anhydrase-II inhibitors for the treatment of glaucoma” (Bioorg Med Chem Lett, 2013).
# How the values were obtained:
# [1] = molecular target: Prostaglandin F2-alpha receptor (Mus musculus, UniProt P43117)
# Description: Agonist activity at FP receptor in mouse 3T3 fibroblast cells assessed as intracellular calcium mobilization by FLIPR
# [2] = in vitro; settings: human, Caco-2
# Description: Permeability across human Caco2 cells
# [3] = in vitro; settings: rabbit
# Description: Corneal permeability in rabbit corneal tissues mounted on vertical Using chambers
# [4] = molecular target: Prostaglandin F2-alpha receptor (Mus musculus) (UniProt P43117); test: Intrinsic activity at FP receptor in mouse 3T3 fibroblast cells assessed as maximum compound-evoked response; format: cell-based
# Prostaglandin F2-alpha receptor (Mus musculus), sequence (P43117 whole entry): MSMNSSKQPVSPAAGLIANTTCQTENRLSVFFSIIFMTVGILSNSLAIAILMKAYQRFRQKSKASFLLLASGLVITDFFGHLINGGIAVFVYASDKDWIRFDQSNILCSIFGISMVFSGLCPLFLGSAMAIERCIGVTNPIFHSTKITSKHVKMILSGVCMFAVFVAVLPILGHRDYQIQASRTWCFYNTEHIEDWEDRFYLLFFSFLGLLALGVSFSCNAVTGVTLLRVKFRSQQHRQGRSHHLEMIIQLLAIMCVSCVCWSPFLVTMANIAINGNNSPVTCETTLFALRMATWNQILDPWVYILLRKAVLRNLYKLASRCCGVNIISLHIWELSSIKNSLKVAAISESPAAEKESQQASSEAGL
# Prostaglandin F2-alpha receptor, sequence (P43117 whole entry): as above
SMILES,EC50 [1] [µM],Papp [2] [×10⁻⁶ cm/s],Papp [3] [×10⁻⁶ cm/s],Intrinsic activity [4]
NS(=O)(=O)c1nnc(NC(=O)CNC[C@@H]2[C@@H](C/C=C\CCCC(=O)O)[C@@H](O)C[C@H]2O)s1,> 5.01,3,0.94,–
CCN(C(=O)/C=C/[C@@H]1[C@@H](C/C=C\CCCC(=O)O)[C@@H](O)C[C@H]1O)[C@H]1C[C@H](C)S(=O)(=O)C2SC(S(N)(=O)=O)=CC21 (some centres undefined),> 5.01,–,–,–
CCN(C(=O)/C=C/[C@@H]1[C@@H](C/C=C\CCCC(=O)OC(C)C)[C@@H](O)C[C@H]1O)[C@H]1C[C@H](C)S(=O)(=O)C2SC(S(N)(=O)=O)=CC21 (some centres undefined),> 5.01,–,–,–
CC(C)OC(=O)CCC/C=C\C[C@@H]1[C@@H](/C=C/C(=O)Nc2nnc(S(N)(=O)=O)s2)[C@H](O)C[C@@H]1O,> 5.01,–,–,–
O=C(O)CCC/C=C\C[C@@H]1[C@@H](CC[C@@H](O)CCc2ccccc2)[C@H](O)C[C@@H]1O [LATANOPROST ACID],0.00631,3.5,1.2,1
CC(C)OC(=O)CCC/C=C\C[C@@H]1[C@@H](CNCC(=O)Nc2nnc(S(N)(=O)=O)s2)[C@H](O)C[C@@H]1O,> 5.01,2.1,3.1,–

# More lines, now with the values ahead:
EC50 [1] [µM],Papp [2] [×10⁻⁶ cm/s],Papp [3] [×10⁻⁶ cm/s],Intrinsic activity [4],SMILES
> 5.01,–,–,–,CCCCC[C@H](O)/C=C/[C@@H]1[C@@H](C/C=C\CCCC(=O)N(CC)[C@H]2CN(CCCOC)S(=O)(=O)C3SC(S(N)(=O)=O)=CC32)[C@@H](O)C[C@H]1O (some centres undefined)
> 5.01,3.2,2.1,–,COC(=O)CCC/C=C\C[C@@H]1[C@@H](c2cn(-c3ccc(S(N)(=O)=O)cc3)nn2)[C@H](O)C[C@@H]1O
2,3.3,1.7,> 1,NS(=O)(=O)c1ccc(-n2cc([C@@H]3[C@@H](C/C=C\CCCC(=O)O)[C@@H](O)C[C@H]3O)nn2)cc1
–,3.3,9.7,1,CCCCC[C@H](O)/C=C/[C@@H]1[C@@H](C/C=C\CCCC(=O)O)[C@@H](O)C[C@H]1O [DINOPROST]
3.98,1.6,6.4,0.9,CCCCC[C@H](O)/C=C/[C@@H]1[C@@H](C/C=C\CCCC(=O)Nc2nnc(S(N)(=O)=O)s2)[C@@H](O)C[C@H]1O
> 5.01,–,–,–,CCCCC[C@H](O)/C=C/[C@@H]1[C@@H](C/C=C\CCCC(=O)NCCc2ccc(S(N)(=O)=O)cc2)[C@@H](O)C[C@H]1O
